The text below walks through data of patent US11731986B2 (Sanford Burnham Prebys Medical Discovery Institute, priority 2017, dated 2023).

As usually defined, the IC50 is the concentration that gives 50% inhibition.

The target of this assay is T1, human LMPTP-A (Homo sapiens, UniProt P24666).
T1 sequence (P24666 1-158): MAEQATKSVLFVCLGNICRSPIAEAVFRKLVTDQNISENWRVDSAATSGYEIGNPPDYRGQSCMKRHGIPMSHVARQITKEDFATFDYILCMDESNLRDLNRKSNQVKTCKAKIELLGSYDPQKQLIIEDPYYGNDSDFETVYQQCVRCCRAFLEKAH
The assay can be described thus: Enzyme Assay of Inhibition of LMPTP-A (phosphatase assay, OMFP or pNPP substrate). The format is biochemical. Conditions: Bis-Tris pH 6.0, 37° C. Here is the method:
Phosphatase assays were performed in buffer containing 50 mM Bis-Tris, pH 6.0, 1 mM DTT and 0.01% Triton X-100 at 37° C. For assays conducted with 3-O-methylfluorescein phosphate (OMFP) as substrate, fluorescence was monitored continuously at λex=485 and λem=525 nm. For assays conducted with para-nitrophenylphosphate (pNPP) as substrate, the reaction was stopped by addition of 2× reaction volume of 1 M NaOH, and absorbance was measured at 405 nm. IC50 values of compounds of Formula (I), (II), (III), or (IV) were determined from plots of inhibitor concentration versus percentage of enzyme activity. For inhibitor selectivity assays, each PTP was incubated with either 0.4 mM OMFP or 5 mM pNPP in the presence of 40 μM compound or DMSO. […] For the inhibitor reversibility assay, 50 nM human LMPTP-A was pre-incubated with 10 μM of compound of Formula (I), (II), (III), or (IV) or DMSO for 5 min. The enzyme was diluted 100× in phosphatase assay buffer containing 0.4 mM OMFP and fluorescence was measured at the indicated time points.

Consider `CN1CCC(NC(=O)/C=C/c2ccc(-c3cc(NCCCN4CCCCC4)c4cnccc4n3)cc2)CC1` [(E)-N-(1-Methylpiperidin-4-yl)-3-(4-(4-(3-(piperidin-1-yl)propylamino)-1,6-naphthyridin-2-yl)phenyl)acrylamide], for which the IC50 is at most 1000 nM.

In turn, `CN1CCC(NC(=O)/C=C/c2ccc(-c3cc(NCCCN4CCCCC4)c4cnccc4n3)s2)CC1` [(E)-N-(1-Methylpiperidin-4-yl)-3-(5-(4-(3-(piperidin-1-yl)propylamino)-1,6-naphthyridin-2-yl)thiophen-2-yl)acrylamide] had an IC50 of 1000 to 20000 nM.

For the compound `CN1CCC(NC(=O)/C=C/c2ccc(-c3cc(NCCCN4CCCCC4)c4cnccc4n3)o2)CC1` [(E)-N-(1-Methylpiperidin-4-yl)-3-(5-(4-((3-(piperidin-1-yl)propyl)amino)-1,6-naphthyridin-2-yl)furan-2-yl)acrylamide], the concentration for half-maximal inhibition (IC50) is at least 20000 nM.

Consider `CN1CCC(CCNC(=O)/C=C/c2ccc(-c3cc(NCCCN4CCCCC4)c4cnccc4n3)cc2)CC1` [(E)-N-(2-(1-Methylpiperidin-4-yl)ethyl)-3-(4-(4-(3-(piperidin-1-yl)propylamino)-1,6-naphthyridin-2-yl)phenyl)acrylamide], for which the half-inhibitory concentration (IC50) is at most 1000 nM.

As for `CN1CCC(CCNC(=O)/C=C/c2ccc(-c3cc(NCCCN4CCCCC4)c4cnccc4n3)o2)CC1` [(E)-N-(2-(1-Methylpiperidin-4-yl)ethyl)-3-(5-(4-((3-(piperidin-1-yl)propyl)amino)-1,6-naphthyridin-2-yl)furan-2-yl)acrylamide], the IC50 was 1000 to 20000 nM.

Compound `CN1CCCN(CCNC(=O)/C=C/c2ccc(-c3cc(NCCCN4CCCCC4)c4cnccc4n3)cc2)CC1` [(E)-N-(2-(4-Methyl-1,4-diazepan-1-yl)ethyl)-3-(4-(4-(3-(piperidin-1-yl)propylamino)-1,6-naphthyridin-2-yl)phenyl)acrylamide] yielded a half-maximal inhibitory concentration (IC50) of at most 1000 nM.

For `CN(C)CCNC(=O)/C=C/c1ccc(-c2cc(NCCCN3CCCCC3)c3cnccc3n2)cc1` [(E)-N-(2-(Dimethylamino)ethyl)-3-(4-(4-(3-(piperidin-1-yl)propylamino)-1,6-naphthyridin-2-yl)phenyl)acrylamide], the IC50 is at most 1000 nM.

Compound `O=C(/C=C/c1ccc(-c2cc(NCCCN3CCCCC3)c3cnccc3n2)cc1)NCCCN1CCCCC1` [(E)-N-(3-(Piperidin-1-yl)propyl)-3-(4-(4-(3-(piperidin-1-yl)propylamino)-1,6-naphthyridin-2-yl)phenyl)acrylamide] had a half-maximal inhibitory concentration (IC50) of at most 1000 nM.

The compound `CCN1CCC(CNC(=O)/C=C/c2ccc(-c3cc(NCCCN4CCCCC4)c4cnccc4n3)cc2)CC1` [(E)-N-((1-Ethylpiperidin-4-yl)methyl)-3-(4-(4-(3-(piperidin-1-yl)propylamino)-1,6-naphthyridin-2-yl)phenyl)acrylamide] showed a half-inhibitory concentration (IC50) of 1000 to 20000 nM.

In the case of `CN1CCC(CNC(=O)/C=C/c2ccc(-c3cc(NCCCN4CCCCC4)c4cnccc4n3)cc2)CC1` [(E)-N-((1-Methylpiperidin-4-yl)methyl)-3-(4-(4-(3-(piperidin-1-yl)propylamino)-1,6-naphthyridin-2-yl)phenyl)acrylamide], the concentration for half-maximal inhibition (IC50) was at most 1000 nM.

On to `CN1CCC(N/C(=N\O)c2ccc(-c3cc(NCCCN4CCCCC4)c4cncc(Cl)c4n3)cc2)CC1` [(Z)-4-(8-chloro-4-((3-(piperidin-1-yl)propyl)amino)-1,6-naphthyridin-2-yl)-N′-hydroxy-N-(1-methylpiperidin-4-yl)benzimidamide], for which the concentration for half-maximal inhibition (IC50) was at least 20000 nM.

`CO/N=C(\NC1CCN(C)CC1)c1ccc(-c2cc(NCCCN3CCCCC3)c3cnccc3n2)cc1` [(Z)-N′-methoxy-N-(1-methylpiperidin-4-yl)-4-(4-(3-(piperidin-1-yl)propylamino)-1,6-naphthyridin-2-yl)benzimidamide] came in with a half-inhibitory concentration (IC50) of at most 1000 nM.

On to `O=C(c1nc2ccc(-c3cc(NCCCN4CCCCC4)c4cnccc4n3)cc2s1)N1CCOCC1` [Morpholino(6-(4-(3-(piperidin-1-yl)propylamino)-1,6-naphthyridin-2-yl)benzo[d]thiazol-2-yl)methanone], for which the IC50 lay within 1000 to 20000 nM.

The compound `CCN(CC)C(=O)c1ccc(-c2cc(NCCCN3CCCCC3)c3cnccc3n2)c(C(N)=O)c1` [N1,N1-diethyl-4-(4-((3-(piperidin-1-yl)propyl)amino)-1,6-naphthyridin-2-yl)isophthalamide] had an IC50 of 1000 to 20000 nM.

`CCN(CC)C(=O)CCc1ccc(-c2cc(NC3CCN(C)CC3)c3cnccc3n2)cc1` [N,N-Diethyl-3-(4-(4-(1-methylpiperidin-4-ylamino)-1,6-naphthyridin-2-yl)phenyl)propanamide] registered a half-maximal inhibitory concentration (IC50) of at most 1000 nM.

Compound `CCN(CC)C(=O)c1ccc(-c2cc(NC3CCN(C)C3)c3cnccc3n2)cc1` (stereo not drawn) [N,N-Diethyl-4-(4-(1-methylpyrrolidin-3-ylamino)-1,6-naphthyridin-2-yl)benzamide] showed a concentration for half-maximal inhibition (IC50) of 1000 to 20000 nM.

As for `CCN(CC)C(=O)c1ccc(-c2cc(Nc3ccc(NCCOC)cc3)c3cnccc3n2)cc1` [N,N-Diethyl-4-(4-(4-(2-methoxyethylamino)phenylamino)-1,6-naphthyridin-2-yl)benzamide], the IC50 is 1000 to 20000 nM.

`CCN(CC)C(=O)c1ccc(-c2cc(Nc3ccc(OC)cc3)c3cnccc3n2)cc1` [N,N-Diethyl-4-(4-(4-methoxyphenylamino)-1,6-naphthyridin-2-yl)benzamide] registered an IC50 of 1000 to 20000 nM.

On to `CCN(CC)C(=O)c1ccc(-c2cc(NC3CCN(C)CC3)c3cnccc3n2)cc1` [N,N-Diethyl-4-(4-((1-methylpiperidin-4-yl)amino)-1,6-naphthyridin-2-yl)benzamide], for which the IC50 was 1000 to 20000 nM.

`CCN(CC)C(=O)c1ccc(-c2cc(NCCN3CCCCC3)c3cnccc3n2)cc1` [N,N-Diethyl-4-(4-((2-(piperidin-1-yl)ethyl)amino)-1,6-naphthyridin-2-yl)benzamide] yielded a half-maximal inhibitory concentration (IC50) of 1000 to 20000 nM.

In turn, `CCN(CC)C(=O)c1ccc(-c2cc(NCCCN3CCN(S(C)(=O)=O)CC3)c3cnccc3n2)cc1` [N,N-Diethyl-4-(4-((3-(4-(methylsulfonyl)piperazin-1-yl)propyl)amino)-1,6-naphthyridin-2-yl)benzamide] showed a half-inhibitory concentration (IC50) of 1000 to 20000 nM.

`CCN(CC)C(=O)c1ccc(-c2cc(NCCCN3CCNCC3)c3cnccc3n2)cc1` [N,N-Diethyl-4-(4-((3-(piperazin-1-yl)propyl)amino)-1,6-naphthyridin-2-yl)benzamide] registered an IC50 of 1000 to 20000 nM.

`CCN(CC)C(=O)c1ccc(-c2cc(NCCCN3CCOCC3)c3cnccc3n2)cc1` [N,N-Diethyl-4-(4-((3-morpholinopropyl)amino)-1,6-naphthyridin-2-yl)benzamide] yielded an IC50 of 1000 to 20000 nM.

In turn, `CCN(CC)C(=O)c1ccc(-c2cc(NC3CCNCC3)c3cnccc3n2)cc1` [N,N-Diethyl-4-(4-(piperidin-4-ylamino)-1,6-naphthyridin-2-yl)benzamide] had an IC50 of 1000 to 20000 nM.

The compound `CCN(CC)C(=O)c1ccc(-c2cc(NCCCN3CCCCC3)c3cncc(C)c3n2)cc1` [N,N-Diethyl-4-(8-methyl-4-((3-(piperidin-1-yl)propyl)amino)-1,6-naphthyridin-2-yl)benzamide] showed a half-inhibitory concentration (IC50) of at least 20000 nM.

As for `CCN(CC)C(=O)c1nc2ccc(-c3cc(NCCCN4CCCCC4)c4cnccc4n3)cc2o1` [N,N-Diethyl-6-(4-(3-(piperidin-1-yl)propylamino)-1,6-naphthyridin-2-yl)benzo[d]oxazole-2-carboxamide], the IC50 is 1000 to 20000 nM.

Consider `CCN(CC)C(=O)c1nc2ccc(-c3cc(NCCCN4CCCCC4)c4cnccc4n3)cc2s1` [N,N-Diethyl-6-(4-(3-(piperidin-1-yl)propylamino)-1,6-naphthyridin-2-yl)benzo[d]thiazole-2-carboxamide], for which the half-inhibitory concentration (IC50) fell in the range of 1000 to 20000 nM.

For `CCN(CC)C(=O)COCc1ccc(-c2cc(NCCCN3CCCCC3)c3cnccc3n2)cc1` [N,N-diethyl-2-((4-(4-((3-(piperidin-1-yl)propyl)amino)-1,6-naphthyridin-2-yl)benzyl)oxy)acetamide], the 50% inhibitory concentration (IC50) was 1000 to 20000 nM.

Regarding `CCN(CC)C(=O)CCOc1ccc(-c2cc(NCCCN3CCCCC3)c3cnccc3n2)cc1` [N,N-diethyl-3-(4-(4-((3-(piperidin-1-yl)propyl)amino)-1,6-naphthyridin-2-yl)phenoxy)propanamide], the half-inhibitory concentration (IC50) is at least 20000 nM.

Compound `CCN(CC)C(=O)c1ccc(-c2cc(NCCCN3CCCCC3)nc3ncccc23)cc1` [N,N-diethyl-4-(2-(3-(piperidin-1-yl)propylamino)-1,8-naphthyridin-4-yl)benzamide] showed a half-inhibitory concentration (IC50) of at least 20000 nM.

Turning to `CCN(CC)C(=O)c1ccc(-c2cc(NCCN3CCN(S(C)(=O)=O)CC3)c3cnccc3n2)cc1` [N,N-diethyl-4-(4-(2-(4-(methylsulfonyl)piperazin-1-yl)ethylamino)-1,6-naphthyridin-2-yl)benzamide], the IC50 is 1000 to 20000 nM.

Turning to `CCN(CC)C(=O)c1ccc(-c2cc(NCCN3CCN(C)CC3)c3cnccc3n2)cc1` [N,N-diethyl-4-(4-(2-(4-methylpiperazin-1-yl)ethylamino)-1,6-naphthyridin-2-yl)benzamide], the IC50 fell in the range of 1000 to 20000 nM.

Consider `CCN(CC)C(=O)c1ccc(-c2cc(NCCN3CCNCC3)c3cnccc3n2)cc1` [N,N-diethyl-4-(4-(2-(piperazin-1-yl)ethylamino)-1,6-naphthyridin-2-yl)benzamide], for which the 50% inhibitory concentration (IC50) was in the range of 1000 to 20000 nM.
